Assay results reported in ChEMBL document CHEMBL1201862, “PubChem BioAssay data set” (2004).
Calls of active or inactive are those of the source.

What was measured:
[1] = molecular target: T1, Apoptotic protease-activating factor 1 (Homo sapiens, UniProt O14727); assay type: functional
T1 sequence (O14727 whole entry): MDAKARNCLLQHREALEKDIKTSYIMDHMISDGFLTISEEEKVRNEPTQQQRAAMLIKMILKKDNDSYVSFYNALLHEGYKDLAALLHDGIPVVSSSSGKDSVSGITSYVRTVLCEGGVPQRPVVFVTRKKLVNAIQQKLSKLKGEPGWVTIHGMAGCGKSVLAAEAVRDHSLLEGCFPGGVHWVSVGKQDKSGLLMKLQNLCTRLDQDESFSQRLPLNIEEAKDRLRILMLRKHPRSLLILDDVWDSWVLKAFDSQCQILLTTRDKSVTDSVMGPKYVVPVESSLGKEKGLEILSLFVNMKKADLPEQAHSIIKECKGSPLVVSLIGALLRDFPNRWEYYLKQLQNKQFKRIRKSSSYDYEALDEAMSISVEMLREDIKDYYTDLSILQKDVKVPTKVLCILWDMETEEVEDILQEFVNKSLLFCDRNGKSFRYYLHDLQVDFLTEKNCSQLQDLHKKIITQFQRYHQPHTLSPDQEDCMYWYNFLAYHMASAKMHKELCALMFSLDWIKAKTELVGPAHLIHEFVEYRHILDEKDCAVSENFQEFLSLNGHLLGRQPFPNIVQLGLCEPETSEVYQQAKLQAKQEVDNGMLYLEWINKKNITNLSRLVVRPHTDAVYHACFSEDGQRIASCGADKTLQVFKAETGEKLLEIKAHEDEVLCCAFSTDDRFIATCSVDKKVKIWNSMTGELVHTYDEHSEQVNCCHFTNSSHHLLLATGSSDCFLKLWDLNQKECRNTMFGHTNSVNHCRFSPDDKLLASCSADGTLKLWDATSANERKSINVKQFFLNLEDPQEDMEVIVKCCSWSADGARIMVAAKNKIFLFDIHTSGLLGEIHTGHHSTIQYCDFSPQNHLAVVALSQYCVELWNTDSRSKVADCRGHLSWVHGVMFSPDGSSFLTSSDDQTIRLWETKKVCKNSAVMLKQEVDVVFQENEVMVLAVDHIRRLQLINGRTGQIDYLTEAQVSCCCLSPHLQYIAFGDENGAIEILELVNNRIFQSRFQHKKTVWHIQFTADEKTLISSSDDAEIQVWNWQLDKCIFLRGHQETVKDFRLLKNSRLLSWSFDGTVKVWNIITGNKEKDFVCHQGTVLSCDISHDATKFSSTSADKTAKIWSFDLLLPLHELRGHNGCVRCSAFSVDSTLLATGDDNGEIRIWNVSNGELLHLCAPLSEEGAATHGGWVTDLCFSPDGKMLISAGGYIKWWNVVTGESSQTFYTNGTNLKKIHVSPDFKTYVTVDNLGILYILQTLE

[2] = molecular target: Voltage-gated N-type calcium channel alpha-1B subunit/Amyloid beta A4 precursor protein-binding family A member 1 (Homo sapiens, UniProt Q00975+Q02410); assay type: protein assay
[3] = molecular target: Protein kinase C theta type (Homo sapiens, UniProt Q04759); test: Navigating the Kinome. Panel member name: PRKCQ; assay type: functional
[4] = molecular target: Dual specificity protein kinase CLK2 (Homo sapiens, UniProt P49760); assay type: functional
[5] = molecular target: ALK tyrosine kinase receptor (Homo sapiens, UniProt Q9UM73); assay type: functional;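 also: ALK tested as one member of a kinase panel screen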
[6] = molecular target: Death-associated protein kinase 3 (Homo sapiens, UniProt O43293); assay type: functional;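 also: measured as one member of a kinome-wide profiling panel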
[7] = molecular target: Mitogen-activated protein kinase 8 (Homo sapiens, UniProt P45983); assay type: functional;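 also: value comes from one member of a kinome-wide kinase profiling panel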
[8] = molecular target: Serine/threonine-protein kinase pim-1 (Homo sapiens, UniProt P11309); assay type: functional
[9] = molecular target: Casein kinase I isoform alpha (Homo sapiens, UniProt P48729); assay type: functional
[10] = molecular target: Serine/threonine-protein kinase TAO1 (Homo sapiens, UniProt Q7L7X3); assay type: functional
[11] = molecular target: High affinity nerve growth factor receptor (Homo sapiens, UniProt P04629); assay type: functional;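 also: NTRK1 tested as one member of a kinome-wide profiling panel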
[12] = molecular target: Glycogen synthase kinase-3 alpha (Homo sapiens, UniProt P49840); assay type: functional;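 also: GSK3A result taken from a broad kinome-wide kinase panel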
[13] = molecular target: Mitogen-activated protein kinase kinase kinase kinase 2 (Homo sapiens, UniProt Q12851); assay type: functional;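 also: measured as one member of a kinome-wide kinase panel, with MAP4K2 as the panel entry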
Activated CDC42 kinase 1 = Activated CDC42 kinase 1 (Homo sapiens, UniProt Q07912); test: Navigating the Kinome. Panel member name: ACK1; assay type: functional
[14] = molecular target: Vascular endothelial growth factor receptor 2 (Homo sapiens, UniProt P35968); assay type: functional
[15] = molecular target: Insulin-like growth factor 1 receptor (Homo sapiens, UniProt P08069); test: Navigating the Kinome. Panel member name: IGF1R; assay type: functional
[16] = molecular target: Dual specificity tyrosine-phosphorylation-regulated kinase 1B (Homo sapiens, UniProt Q9Y463); test: Navigating the Kinome. Panel member name: DYRK1B; assay type: functional
Focal adhesion kinase 1 = Focal adhesion kinase 1 (Homo sapiens, UniProt Q05397); assay type: functional;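 also: measured as one member of a kinome panel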
[17] = molecular target: Leucine-rich repeat serine/threonine-protein kinase 2 (Homo sapiens, UniProt Q5S007); assay type: functional;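 also: value from a broad kinome-wide panel profiling study in which LRRK2 was one of the kinases tested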
[18] = molecular target: Tyrosine-protein kinase Fyn (Homo sapiens, UniProt P06241); assay type: functional
[19] = molecular target: Serine/threonine-protein kinase Nek2 (Homo sapiens, UniProt P51955); assay type: functional
[20] = molecular target: Cyclin-dependent kinase 8 (Homo sapiens, UniProt P49336); test: Navigating the Kinome. Panel member name: CDK8; assay type: functional
[21] = molecular target: Cyclin-dependent kinase 7 (Homo sapiens, UniProt P50613); assay type: functional;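 also: value comes from a kinome-wide kinase profiling panel in which CDK7 is one member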
[22] = molecular target: cAMP-dependent protein kinase catalytic subunit alpha (Homo sapiens, UniProt P17612); assay type: functional
[23] = molecular target: Dual specificity protein kinase CLK4 (Homo sapiens, UniProt Q9HAZ1); assay type: functional

Sequence of Tyrosine-protein kinase Fyn (P06241 whole entry): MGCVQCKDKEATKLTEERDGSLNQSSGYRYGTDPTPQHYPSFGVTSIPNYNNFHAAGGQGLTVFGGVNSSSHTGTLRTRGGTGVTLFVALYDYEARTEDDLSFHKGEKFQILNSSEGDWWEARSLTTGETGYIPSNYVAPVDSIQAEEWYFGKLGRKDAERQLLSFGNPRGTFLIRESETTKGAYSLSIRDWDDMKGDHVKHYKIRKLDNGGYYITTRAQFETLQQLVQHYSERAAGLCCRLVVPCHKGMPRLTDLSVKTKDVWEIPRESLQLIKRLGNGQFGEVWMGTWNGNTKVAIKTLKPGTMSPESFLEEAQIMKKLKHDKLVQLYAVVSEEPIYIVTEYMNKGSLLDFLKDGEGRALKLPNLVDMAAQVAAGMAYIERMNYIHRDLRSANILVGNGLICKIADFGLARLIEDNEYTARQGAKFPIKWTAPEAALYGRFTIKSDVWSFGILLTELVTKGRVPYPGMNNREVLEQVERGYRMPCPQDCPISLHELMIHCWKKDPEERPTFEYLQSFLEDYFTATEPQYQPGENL
Sequence of Death-associated protein kinase 3 (O43293 whole entry): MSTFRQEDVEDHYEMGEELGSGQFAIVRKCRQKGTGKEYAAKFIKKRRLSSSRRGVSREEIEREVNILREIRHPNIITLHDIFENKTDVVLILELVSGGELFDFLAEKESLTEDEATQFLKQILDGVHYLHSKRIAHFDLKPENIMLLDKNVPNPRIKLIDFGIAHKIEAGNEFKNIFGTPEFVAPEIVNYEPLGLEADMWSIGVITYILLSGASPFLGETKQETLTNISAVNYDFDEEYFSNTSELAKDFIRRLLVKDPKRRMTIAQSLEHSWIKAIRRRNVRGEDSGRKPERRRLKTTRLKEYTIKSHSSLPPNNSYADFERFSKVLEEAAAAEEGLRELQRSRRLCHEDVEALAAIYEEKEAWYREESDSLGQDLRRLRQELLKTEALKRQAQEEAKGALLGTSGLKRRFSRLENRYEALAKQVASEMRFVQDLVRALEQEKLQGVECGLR
Sequence of Serine/threonine-protein kinase Nek2 (P51955 whole entry): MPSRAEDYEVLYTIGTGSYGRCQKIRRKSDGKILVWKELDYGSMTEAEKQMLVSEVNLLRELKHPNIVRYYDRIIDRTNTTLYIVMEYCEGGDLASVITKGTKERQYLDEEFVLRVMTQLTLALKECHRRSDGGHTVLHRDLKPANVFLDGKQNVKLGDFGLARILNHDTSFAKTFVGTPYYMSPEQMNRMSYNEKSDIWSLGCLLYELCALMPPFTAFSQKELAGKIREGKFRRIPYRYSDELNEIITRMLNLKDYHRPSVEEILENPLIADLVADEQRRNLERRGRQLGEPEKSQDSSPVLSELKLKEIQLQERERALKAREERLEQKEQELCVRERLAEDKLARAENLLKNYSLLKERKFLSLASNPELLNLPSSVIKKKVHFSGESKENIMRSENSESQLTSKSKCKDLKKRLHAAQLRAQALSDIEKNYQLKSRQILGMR
Sequence of Cyclin-dependent kinase 7 (P50613 whole entry): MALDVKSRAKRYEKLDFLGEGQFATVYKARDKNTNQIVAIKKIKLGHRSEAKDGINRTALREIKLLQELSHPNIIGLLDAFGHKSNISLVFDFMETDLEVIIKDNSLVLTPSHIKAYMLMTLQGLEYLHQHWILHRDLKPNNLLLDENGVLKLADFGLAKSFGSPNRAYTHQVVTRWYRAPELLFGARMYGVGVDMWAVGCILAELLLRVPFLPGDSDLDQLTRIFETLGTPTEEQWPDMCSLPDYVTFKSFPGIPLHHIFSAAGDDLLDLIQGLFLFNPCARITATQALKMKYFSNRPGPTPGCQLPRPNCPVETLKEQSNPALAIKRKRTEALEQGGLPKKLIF
Sequence of Mitogen-activated protein kinase 8 (P45983 whole entry): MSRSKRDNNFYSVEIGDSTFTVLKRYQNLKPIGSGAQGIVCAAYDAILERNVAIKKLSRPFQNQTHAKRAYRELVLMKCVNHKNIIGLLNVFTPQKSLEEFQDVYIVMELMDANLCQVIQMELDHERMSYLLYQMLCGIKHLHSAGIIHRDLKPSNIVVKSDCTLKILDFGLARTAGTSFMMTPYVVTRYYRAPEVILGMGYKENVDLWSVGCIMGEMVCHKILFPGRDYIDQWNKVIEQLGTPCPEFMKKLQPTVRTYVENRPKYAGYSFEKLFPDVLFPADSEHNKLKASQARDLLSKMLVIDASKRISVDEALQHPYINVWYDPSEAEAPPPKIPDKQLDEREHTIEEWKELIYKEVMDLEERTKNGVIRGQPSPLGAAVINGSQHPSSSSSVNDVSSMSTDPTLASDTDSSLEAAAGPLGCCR
Sequence of Protein kinase C theta type (Q04759 whole entry): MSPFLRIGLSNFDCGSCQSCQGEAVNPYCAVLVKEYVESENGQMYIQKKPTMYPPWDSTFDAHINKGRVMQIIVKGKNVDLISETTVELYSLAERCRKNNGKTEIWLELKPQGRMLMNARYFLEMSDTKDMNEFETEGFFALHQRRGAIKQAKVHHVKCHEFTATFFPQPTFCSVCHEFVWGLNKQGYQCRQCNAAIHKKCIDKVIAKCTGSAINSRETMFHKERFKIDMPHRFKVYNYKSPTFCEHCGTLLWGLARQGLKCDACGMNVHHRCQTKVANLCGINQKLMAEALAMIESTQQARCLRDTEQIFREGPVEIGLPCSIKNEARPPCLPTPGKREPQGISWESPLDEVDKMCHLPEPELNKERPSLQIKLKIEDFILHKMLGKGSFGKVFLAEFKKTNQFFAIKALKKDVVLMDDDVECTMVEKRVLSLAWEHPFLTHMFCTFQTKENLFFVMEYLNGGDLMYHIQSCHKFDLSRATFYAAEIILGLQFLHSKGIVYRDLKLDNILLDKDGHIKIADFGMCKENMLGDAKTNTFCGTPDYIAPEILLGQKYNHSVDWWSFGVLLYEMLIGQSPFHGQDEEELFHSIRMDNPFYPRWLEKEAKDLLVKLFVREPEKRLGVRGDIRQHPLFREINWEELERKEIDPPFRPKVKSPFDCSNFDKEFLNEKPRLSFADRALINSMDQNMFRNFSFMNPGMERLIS
Sequence of Serine/threonine-protein kinase TAO1 (Q7L7X3 whole entry): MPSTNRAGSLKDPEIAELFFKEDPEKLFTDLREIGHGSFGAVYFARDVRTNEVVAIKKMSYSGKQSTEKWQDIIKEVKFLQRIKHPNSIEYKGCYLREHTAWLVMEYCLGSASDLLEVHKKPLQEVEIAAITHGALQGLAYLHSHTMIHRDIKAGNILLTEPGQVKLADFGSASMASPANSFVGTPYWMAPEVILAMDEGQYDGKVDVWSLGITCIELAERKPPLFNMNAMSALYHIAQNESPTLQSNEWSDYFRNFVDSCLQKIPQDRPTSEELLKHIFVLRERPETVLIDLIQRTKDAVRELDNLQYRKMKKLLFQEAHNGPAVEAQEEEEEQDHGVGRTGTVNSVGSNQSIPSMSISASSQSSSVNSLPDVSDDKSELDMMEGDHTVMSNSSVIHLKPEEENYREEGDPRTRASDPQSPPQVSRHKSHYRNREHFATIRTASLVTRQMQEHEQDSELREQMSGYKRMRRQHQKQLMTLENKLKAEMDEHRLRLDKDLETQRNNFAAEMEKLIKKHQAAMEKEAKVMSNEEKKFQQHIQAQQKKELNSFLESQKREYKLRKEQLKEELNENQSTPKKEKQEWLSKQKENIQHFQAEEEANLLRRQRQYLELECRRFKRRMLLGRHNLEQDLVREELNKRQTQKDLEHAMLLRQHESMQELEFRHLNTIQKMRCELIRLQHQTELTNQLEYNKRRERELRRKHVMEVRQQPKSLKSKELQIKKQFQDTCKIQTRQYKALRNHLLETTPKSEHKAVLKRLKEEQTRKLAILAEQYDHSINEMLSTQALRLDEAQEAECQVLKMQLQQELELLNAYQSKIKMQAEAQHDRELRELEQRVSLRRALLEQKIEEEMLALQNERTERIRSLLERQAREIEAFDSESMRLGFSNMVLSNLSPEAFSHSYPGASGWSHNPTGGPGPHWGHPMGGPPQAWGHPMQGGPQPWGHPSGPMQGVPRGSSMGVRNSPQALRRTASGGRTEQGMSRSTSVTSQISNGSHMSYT
Sequence of High affinity nerve growth factor receptor (P04629 whole entry): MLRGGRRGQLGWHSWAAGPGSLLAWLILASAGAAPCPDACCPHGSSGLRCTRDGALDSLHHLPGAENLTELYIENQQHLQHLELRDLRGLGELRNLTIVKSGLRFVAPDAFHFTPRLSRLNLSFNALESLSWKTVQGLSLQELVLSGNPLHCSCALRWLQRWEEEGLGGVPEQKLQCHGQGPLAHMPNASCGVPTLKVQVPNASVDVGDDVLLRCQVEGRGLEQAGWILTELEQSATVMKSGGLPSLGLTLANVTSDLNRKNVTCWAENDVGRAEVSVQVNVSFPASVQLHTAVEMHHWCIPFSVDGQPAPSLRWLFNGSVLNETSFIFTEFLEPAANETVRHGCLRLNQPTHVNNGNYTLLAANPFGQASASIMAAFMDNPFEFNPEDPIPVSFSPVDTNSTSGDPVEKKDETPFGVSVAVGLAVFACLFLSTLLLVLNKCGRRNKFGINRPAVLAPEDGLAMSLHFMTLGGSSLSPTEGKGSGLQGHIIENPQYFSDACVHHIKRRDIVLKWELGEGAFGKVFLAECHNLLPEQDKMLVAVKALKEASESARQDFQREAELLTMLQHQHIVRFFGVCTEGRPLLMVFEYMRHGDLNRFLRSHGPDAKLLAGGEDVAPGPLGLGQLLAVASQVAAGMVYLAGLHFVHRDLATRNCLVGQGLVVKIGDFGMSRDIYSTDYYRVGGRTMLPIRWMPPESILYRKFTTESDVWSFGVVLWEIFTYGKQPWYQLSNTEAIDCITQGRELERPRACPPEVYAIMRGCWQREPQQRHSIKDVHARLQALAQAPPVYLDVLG
Sequence of Serine/threonine-protein kinase pim-1 (P11309 whole entry, canonical isoform): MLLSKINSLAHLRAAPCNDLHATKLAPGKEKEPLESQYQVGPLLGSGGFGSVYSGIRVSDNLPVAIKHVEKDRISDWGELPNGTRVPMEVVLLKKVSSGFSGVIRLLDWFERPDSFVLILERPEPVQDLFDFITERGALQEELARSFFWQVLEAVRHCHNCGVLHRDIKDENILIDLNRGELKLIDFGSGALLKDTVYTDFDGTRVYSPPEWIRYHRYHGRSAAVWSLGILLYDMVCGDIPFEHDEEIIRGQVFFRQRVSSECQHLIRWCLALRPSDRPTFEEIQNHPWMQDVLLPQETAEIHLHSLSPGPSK

| Structure (SMILES) | Ki [3] | Ki [4] | Ki [5] | Ki [7] | Ki [8] | Ki [9] | Ki [10] | Ki [11] | Ki [12] | Ki [13] | Ki (Activated CDC42 kinase 1) | Ki [14] | Ki [15] | Ki [16] | Ki (Focal adhesion kinase 1) | Ki [17] | Ki [18] | Ki [19] | IC50 [1] | Ki [6] | other results |
| --- | --- | --- | --- | --- | --- | --- | --- | --- | --- | --- | --- | --- | --- | --- | --- | --- | --- | --- | --- | --- | --- |
| CCCNC(=O)c1c(N)n(CC2CCCO2)c2nc3ccccc3nc12 (centres undefined) |  |  |  |  |  |  |  |  |  |  |  |  |  |  |  |  |  |  | 58.6 µM (active) |  |  |
| COc1cccc2c1NC(C(=O)O)C1CC=CC21 (centres undefined) |  |  |  |  |  |  |  |  |  |  |  |  |  |  |  |  |  |  |  |  | IC50 [2]: 4.46 µM (active) |
| CCc1ccc(S(=O)(=O)/N=C2\C=C(Nc3ccc(O)cc3)C(=O)c3ccccc32)cc1 |  |  |  |  |  |  |  |  |  |  |  |  |  |  |  |  |  |  | 1.97 µM (active) |  |  |

Now from value to compound, other results behind:

| Ki [3] | Ki [4] | Ki [5] | Ki [7] | Ki [8] | Ki [9] | Ki [10] | Ki [11] | Ki [12] | Ki [13] | Ki (Activated CDC42 kinase 1) | Ki [14] | Ki [15] | Ki [16] | Ki (Focal adhesion kinase 1) | Ki [17] | Ki [18] | Ki [19] | Structure (SMILES) | IC50 [1] | Ki [6] | other results |
| --- | --- | --- | --- | --- | --- | --- | --- | --- | --- | --- | --- | --- | --- | --- | --- | --- | --- | --- | --- | --- | --- |
| 0.398 µM (active) | > 3.98 µM (inactive) | 1.26 µM (active) | 0.631 µM (active) | 0.398 µM (active) | 1.58 µM (active) | 3.98 µM (active) | 0.398 µM (active) | 1 µM (active) | 0.501 µM (active) | > 3.98 µM (inactive) | 2.51 µM (active) | > 2.51 µM (inactive) | 0.398 µM (active) | 2.51 µM (active) | 0.794 µM (active) | 2 µM (active) | 0.316 µM (active) | COc1c(-c2nc3ccccc3[nH]2)c(O)cc2oc(C)cc(=O)c12 |  | 2.51 µM (active) | Ki [20]: 0.316 µM (active); Ki [21]: 0.501 µM (active); Ki [22]: 0.501 µM (active); Ki [23]: 0.0794 µM (active) |
| > 100 µM (inactive) | 63.1 µM (active) | 25.1 µM (active) | 7.94 µM (active) |  | 6.31 µM (active) | 100 µM (active) |  |  | 50.1 µM (active) |  | 25.1 µM (active) |  | 20 µM (active) | 79.4 µM (active) | 2.51 µM (active) |  |  | COC(=O)c1c(N)nc2ccccn12 |  | 50.1 µM (active) | Ki [20]: 20 µM (active); Ki [21]: 63.1 µM (active); Ki [22]: 10 µM (active); Ki [23]: 3.98 µM (active) |
|  |  |  |  | > 6.31 µM (inactive) |  |  | > 3.16 µM (inactive) | > 3.98 µM (inactive) |  | > 3.98 µM (inactive) |  | > 2.51 µM (inactive) |  |  |  | > 6.31 µM (inactive) | > 3.16 µM (inactive) | Cc1ccc(F)c(NC(=O)Nc2ccc(-c3cccc4[nH]nc(N)c34)cc2)c1 [LINIFANIB] |  |  |  |
